Data taken from the supplement of paper PMC11451515.

System: SEM cells
Assay: cell viability relative to DMSO control; higher = less cytotoxic
Settings: 48 h
In short: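 Viability values are per-plate percentages of DMSO wells, with background from cell-free wells. Library compounds in DMSO were pin-dosed, in an 11-point threefold series from 47 μM to 0.79 nM, onto NOMO1 or SEM (500 cells/well) or P12-Ichikawa (1000 cells/well) leukemia cells in 1536-well plates (5 μl). Those cells had been adapted for at least four passages in each medium, and CellTiter-Glo One luminescence was read after 48 h at 37°C.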

[1] = HPLM + 10% dialyzed FBS, 0.000781 µM
[2] = HPLM + 10% dialyzed FBS, 0.00234 µM
[3] = HPLM + 10% dialyzed FBS, 0.00702 µM
[4] = HPLM + 10% dialyzed FBS, 0.0211 µM
[5] = HPLM + 10% dialyzed FBS, 0.0632 µM
[6] = HPLM + 10% dialyzed FBS, 0.19 µM
[7] = HPLM + 10% dialyzed FBS, 0.569 µM
[8] = HPLM + 10% dialyzed FBS, 1.71 µM
[9] = HPLM + 10% dialyzed FBS, 5.12 µM
[10] = HPLM + 10% dialyzed FBS, 15.4 µM
[11] = HPLM + 10% dialyzed FBS, 46.1 µM
[12] = RPMI 5 mM glucose + 10% FBS, 0.000781 µM
[13] = RPMI 5 mM glucose + 10% FBS, 0.00234 µM
[14] = RPMI 5 mM glucose + 10% FBS, 0.00702 µM
[15] = RPMI 5 mM glucose + 10% FBS, 0.0211 µM
[16] = RPMI 5 mM glucose + 10% FBS, 0.0632 µM
[17] = RPMI 5 mM glucose + 10% FBS, 0.19 µM
[18] = RPMI 5 mM glucose + 10% FBS, 0.569 µM
[19] = RPMI 5 mM glucose + 10% FBS, 1.71 µM
[20] = RPMI 5 mM glucose + 10% FBS, 5.12 µM
[21] = RPMI 5 mM glucose + 10% FBS, 15.4 µM
[22] = RPMI 5 mM glucose + 10% FBS, 46.1 µM
[23] = RPMI 5 mM glucose + 10% dialyzed FBS, 0.000781 µM
[24] = RPMI 5 mM glucose + 10% dialyzed FBS, 0.00234 µM
[25] = RPMI 5 mM glucose + 10% dialyzed FBS, 0.00702 µM
[26] = RPMI 5 mM glucose + 10% dialyzed FBS, 0.0211 µM
[27] = RPMI 5 mM glucose + 10% dialyzed FBS, 0.0632 µM
[28] = RPMI 5 mM glucose + 10% dialyzed FBS, 0.19 µM
[29] = RPMI 5 mM glucose + 10% dialyzed FBS, 0.569 µM
[30] = RPMI 5 mM glucose + 10% dialyzed FBS, 1.71 µM
[31] = RPMI 5 mM glucose + 10% dialyzed FBS, 5.12 µM
[32] = RPMI 5 mM glucose + 10% dialyzed FBS, 15.4 µM
[33] = RPMI 5 mM glucose + 10% dialyzed FBS, 46.1 µM

SMILES	cell viability [1] [%]	cell viability [2] [%]	cell viability [3] [%]	cell viability [4] [%]	cell viability [5] [%]	cell viability [6] [%]	cell viability [7] [%]	cell viability [8] [%]	cell viability [9] [%]	cell viability [10] [%]	cell viability [11] [%]	cell viability [12] [%]	cell viability [13] [%]	cell viability [14] [%]	cell viability [15] [%]	cell viability [16] [%]	cell viability [17] [%]	cell viability [18] [%]	cell viability [19] [%]	cell viability [20] [%]	cell viability [21] [%]	cell viability [22] [%]	cell viability [23] [%]	cell viability [24] [%]	cell viability [25] [%]	cell viability [26] [%]	cell viability [27] [%]	cell viability [28] [%]	cell viability [29] [%]	cell viability [30] [%]	cell viability [31] [%]	cell viability [32] [%]	cell viability [33] [%]
C1Cc2[nH]nc(-c3nn[nH]n3)c2C1	91.4	101	113	114	107	104	128	128	120	116	100	112	122	119	128	125	137	129	163	136	145	140	115	129	125	127	141	162	145	141	149	144	162
FC(F)(F)c1ccc(Nc2nc3cc(Oc4ccnc(-c5ncc(C(F)(F)F)[nH]5)c4)ccc3[nH]2)cc1	108	97.7	112	116	121	117	118	121	106	82.7	18.4	120	114	117	113	125	117	100	120	114	80.8	4.03	–	–	–	–	–	–	–	–	–	–	–
CCNC(=O)C[C@@H]1\N=C(C2=CC=C(Cl)C=C2)/C3=C(C=CC(=C3)OC)[N]4C(=NN=C14)C	–	–	–	–	–	–	–	–	–	–	–	–	–	–	–	–	–	–	–	–	–	–	106	114	107	105	91.1	90.2	63.8	42.9	19.6	6.54	3.14
O=C(Nc1ccc(OC(F)(F)F)cc1)c1sccc1NCc1ccnc2ccccc12	115	115	114	127	125	115	122	82.3	47.6	24.8	16.8	–	–	–	–	–	–	–	–	–	–	–	122	117	127	135	125	136	130	99.2	87.8	24.1	15.8
Cl.c1cnc2cc3c(cc2n1)C1CNCC3C1	98.5	102	104	104	118	113	114	122	108	113	119	98.7	94.4	91.3	105	111	117	111	105	97.7	110	120	101	93.4	111	121	122	126	115	135	113	111	103
COC1=CC=C2Nc3cc(Cl)ccc3C(N=C3C=C(CN4CCCC4)C(=O)C(CN4CCCC4)=C3)=C2N1	90.6	113	103	105	107	101	106	111	117	61.5	7.01	107	112	120	110	115	110	121	113	121	79	50.3	83.1	108	108	102	102	115	115	80.4	105	56.4	24
COC[C@H](NC(=O)c1cnc(C)s1)C(=O)N[C@@H](COC)C(=O)N[C@@H](Cc1ccccc1)C(=O)[C@@]1(C)CO1	116	97.1	110	121	92.3	5.47	3.74	3.51	2.04	1.53	2.48	102	91.6	111	120	82	6.81	3.82	3.59	2.31	1.56	2.78	81.9	87.7	108	101	70.3	5.77	3.78	2.78	1.96	1.46	2.4
